By melting point is commonly meant the temperature of the solid-liquid transition.

Each structure is given as a SMILES string. pIC50: −log10 of the molar value.

These results are taken from US7932271B2, “Heterocyclic methyl sulfone derivative” (Daiichi Pharmaceutical Co., Ltd., priority 2003, dated 2011).

Data set [1] deals with β amyloid protein (Aβ) secreted by E35 cells (human glioma H4 cells transfected with APP751 gene). The experiment in a line: Inhibition of production or secretion of β-amyloid protein (Aβ) in E35 cells, sandwich ELISA of the supernatant. Format: cell-based. Particulars: 24 hours with test compound, compared to DMSO control cells, read-out: Activity (IC50, concentration at which 50% inhibition of Aβ production was observed). The procedure: The inhibitory activity against formation of β amyloid protein of the compounds obtained in Examples was tested in the method described bellow.
E35 cells were established by transfecting APP751 gene which is a wild type human β-amyloid protein precursor into human glioma cells (H4 cells).
E35 cells were seeded in 96-well plates and cultured in an incubator of 37° C. by using a Dulbecco's Modified Eagle's Medium containing 10% inactivated fetal bovine serum (10% FBS-DMEM). Twenty-four hours after seeding, a test compound dissolved in DMSO so as to give its concentration to be 2000 times as much as that of the final concentration was added to the medium in an amount of 1/2000 capacity of the culture medium. The cells were cultured for additional twenty-four hours, and then the supernatant was collected. The amount of β amyloid protein (Aβ) secreted in the supernatant was measured by the sandwich enzyme-linked immunosorbent assay (ELISA). Described specifically, a monoclonal antibody 25-1, which recognized Aβ25-35, was immobilized onto a 96-well ELISA plate, followed by the incubation at 4° C. for 16 to 20 hours. After washing with a phosphate buffer (pH 7.4) (PBS), a biotinylated monoclonal antibody MA32-40, which recognized Aβ1-8, was added, and the plate was kept at 4° C. for 2 hours. After the supernatant was removed and the well was washed sufficiently with PBS, alkaline phosphatase-conjugated streptavidin was added to the plate. Absorbance was measured while adding BlouPhos (manufactured by KPL) as a substrate. An amount of Aβ contained in the supernatant was calculated using a calibration curve separately created using Aβ of a known concentration. IC50 of the test compound was presented as the concentration at which 50% inhibition of Aβ production was observed compared to the amount of Aβ of the control cells to which only DMSO was added.
When there is at least 10-times difference between the IC50 and the concentration at which cytotoxicity appears, then the compound is judged as a compound having an inhibitory activity against production or secretion of β amyloid protein.
On the technique in general: In an ELISA, binding on a coated surface is turned into a signal by an enzyme label.

Regarding `COc1c(C(c2cc(F)ccc2F)S(=O)(=O)c2ccc(Cl)cc2)c(=O)oc2ccccc12` (centres unmarked) [23 (Compound A), 3-[[(4-Chlorophenyl)sulfonyl]-(2,5-difluorophenyl)methyl]-4-methoxychromen-2-one], the pIC50 in data set [1] was 7.30 to 8.30.
The same measure, in the same setting: the result for `CS(=O)(=O)Nc1cc(C(Sc2ccc(Cl)cc2)c2cc(F)ccc2F)c(Cl)cn1` (centres unmarked) [220 (B), N-[5-chloro-4-[(4-chlorophenylthio)(2,5-difluorophenyl)methyl]pyridin-2-yl]methanesulfonamide] reads 6.30 to 7.30.
Regarding `O=S(=O)(c1ccc(Cl)cc1)C(c1cc(F)ccc1F)C1CCCCC1` (centres unmarked) [Example 1, 2-[[(4-Chlorophenyl)sulfonyl](cyclohexyl)methyl]-1,4-difluorobenzene], the melting point is 107 to 109 °C. Moreover, in data set [1], the pIC50 is 6.30 to 7.30.
The matching figures for `O=S(=O)(c1ccc(Cl)cc1)C(c1cccnc1)c1cc(F)ccc1F` (centres unmarked) [Example 19, 3-[[(4-Chlorophenyl)sulfonyl]-(2,5-difluorophenyl)methyl]pyridine]: 130 to 131 °C and 6.30 to 7.30.
In the same order, the values of `O=S(=O)(c1ccc(Cl)cc1)C(c1ccncc1)c1cc(F)ccc1F` (centres unmarked) [Example 20, 4-[[(4-Chlorophenyl)sulfonyl]-(2,5-difluorophenyl)methyl]pyridine] are 126 to 127 °C and 6.30 to 7.30.
Consider `O=S(=O)(c1ccc(Cl)cc1)C(c1ccc(C2OCCO2)cn1)c1cc(F)ccc1F` (centres unmarked) [Example 42, 2-[(4-Chlorophenylsulfonyl)-(2,5-difluorophenyl)methyl]-5-(1,3-dioxolan-2-yl)pyridine], for which the melting point lay within 167 to 168 °C. Further, the pIC50 in data set [1] is 6.30 to 7.30.
The matching figures for `O=S(=O)(c1ccc(Cl)cc1)C(c1ccc(CO)cn1)c1cc(F)ccc1F` (centres unmarked) [Example 43, 2-[(4-Chlorophenylsulfonyl)-(2,5-difluorophenyl)methyl]-5-(hydroxymethyl)pyridine]: 151 to 152 °C and 6.30 to 7.30.
As for `O=C(O)CCc1ccc(C(c2cc(F)ccc2F)S(=O)(=O)c2ccc(Cl)cc2)nc1` (centres unmarked) [Example 46, 3-[6-[(4-Chlorophenylsulfonyl)-(2,5-difluorophenyl)methyl]pyridin-3-yl]propionic acid], the melting point was in the range of 158 to 160 °C. Moreover, in data set [1], the pIC50 was 6.30 to 7.30.
The matching figures for `O=S(=O)(c1ccc(Cl)cc1)C(c1cc(F)ccc1F)c1ccncc1Cl` (centres unmarked) [Example 55, 3-Chloro-4-[(4-chlorophenylsulfonyl)-(2,5-difluorophenyl)methyl]pyridine]: 160 to 161 °C and 7.30 to 8.30.
On to `[O-][S+](c1ccc(Cl)cc1)C(c1cc(F)ccc1F)c1ccncc1Cl` (centres unmarked) [Example 56, 3-Chloro-4-[(4-chlorophenylsulfinyl)-(2,5-difluorophenyl)methyl]pyridine], for which, in data set [1], the pIC50 is 7.30 to 8.30.
In the case of `O=S(=O)(c1ccc(Cl)cc1)C(c1cc(F)ccc1F)c1cc(Cl)ncc1Cl` (centres unmarked) [Example 57, 2,5-Dichloro-4-[(4-chlorophenylsulfonyl)-(2,5-difluorophenyl)methyl]pyridine 0.5 hydrate], the pIC50 in data set [1] is 7.30 to 8.30.
Consider `O=S(=O)(c1ccc(Cl)cc1)C(c1cc(F)ccc1F)c1cc(N2CCOCC2)ncc1Cl` (centres unmarked) [Example 59, 4-[5-Chloro-4-[(4-chlorophenylsulfonyl)-(2,5-difluorophenyl)methyl]pyridin-2-yl]morpholine], for which the melting point was in the range of 180 to 181 °C. Further, the pIC50 in data set [1] is 7.30 to 8.30.
As to `O=S(=O)(c1ccc(Cl)cc1)C(c1cc(F)ccc1F)c1cc(NCC[N+]2([O-])CCOCC2)ncc1Cl` (centres unmarked) [Example 61, 4-[2-[5-Chloro-4-[(4-chlorophenylsulfonyl)-(2,5-difluorophenyl)methyl]pyridin-2-yl]aminoethyl]morpholine-N-oxide], the pIC50 in data set [1] was more than 8.30.
Still for that read-out and setting: with `CS(=O)(=O)NCc1ccc(C(c2cc(F)ccc2F)S(=O)(=O)c2ccc(Cl)cc2)nc1` (centres unmarked) [Example 82, N-[[6-(4-Chlorophenylsulfonyl)(2,5-difluorophenyl)methylpyridin-3-yl]methyl]methanesulfonamide] the figure was 6.30 to 7.30; with `COC(=O)OCc1ccc(C(c2cc(F)ccc2F)S(=O)(=O)c2ccc(Cl)cc2)nc1` (centres unmarked) [Example 84, [6-(4-Chlorophenylsulfonyl)(2,5-difluorophenyl)methylpyridin-3-yl]methyl methylcarbonate], 6.30 to 7.30.
The same measure, in the same setting: the result for `O=S(=O)(c1ccc(Cl)cc1)C(c1cc(F)ccc1F)c1cc(NCCN2CCOCC2)ncc1Cl` (centres unmarked) [Example 106, 4-[2-[5-Chloro-4-[(4-chlorophenylsulfonyl)-(2,5-difluorophenyl)methyl]pyridin-2-yl]aminoethyl]morpholine] reads more than 8.30; that for `CNCCN(C)c1cc(C(c2cc(F)ccc2F)S(=O)(=O)c2ccc(Cl)cc2)c(Cl)cn1` (centres unmarked) [Example 109, 5-Chloro-4-[(4-chlorophenylsulfonyl)-(2,5-difluorophenyl)methyl]-2-[N-methyl-N-[2-(methylamino)ethyl]amino]pyridine], 7.30 to 8.30; that for `O=S(=O)(c1ccc(Cl)cc1)C(c1cc(F)ccc1F)c1cc(N2CCC[C@H]2CO)ncc1Cl` (some centres unmarked) [Example 111], 7.30 to 8.30.
In the case of `NCC1CN(c2cc(C(c3cc(F)ccc3F)S(=O)(=O)c3ccc(Cl)cc3)c(Cl)cn2)CCO1` (centres unmarked) [Example 114, 2-Aminomethyl-4-[5-chloro-4-[(4-chlorophenylsulfonyl)-(2,5-difluorophenyl)methyl]pyridin-2-yl]morpholine], the pIC50 in data set [1] was 7.30 to 8.30.
Same read-out and setting: with `OC1CCN(c2cc(C(Sc3ccc(Cl)cc3)c3cc(F)ccc3F)c(Cl)cn2)CC1` (centres unmarked) [Example 115, 5-Chloro-4-[(4-chlorophenylthio)-(2,5-difluorophenyl)methyl]-2-(4′-hydroxypiperidin-1′-yl)pyridine] the figure was more than 8.30; with `CS(=O)(=O)CCNc1cc(C(c2cc(F)ccc2F)S(=O)(=O)c2ccc(Cl)cc2)c(Cl)cn1` (centres unmarked) [Example 176, 5-Chloro-4-[(4-chlorophenylsulfonyl)-(2,5-difluorophenyl)methyl]-2-[(2-methylsulfonylethyl)amino]pyridine], more than 8.30; with `CS(=O)(=O)Nc1cc(C(c2cc(F)ccc2F)[S+]([O-])c2ccc(Cl)cc2)c(Cl)cn1` (centres unmarked) [Example 221, N-[5-Chloro-4-[(4-chlorophenylsulfinyl)(2,5-difluorophenyl)methyl]pyridin-2-yl]methanesulfonamide], more than 8.30.
Still for that read-out and setting: the result for `NNc1cc(C(c2cc(F)ccc2F)S(=O)(=O)c2ccc(Cl)cc2)c(Cl)cn1` (centres unmarked) [Example 222, [5-Chloro-4-[(4-chlorophenylsulfonyl)(2,5-difluorophenyl)methyl]pyridin-2-yl]hydrazine] reads 7.30 to 8.30.
For `Nc1cc(C(c2cc(F)ccc2F)S(=O)(=O)c2ccc(Cl)cc2)c(Br)cn1` (centres unmarked) [Example 232, [5-Bromo-4-[(4-chlorophenylsulfonyl)(2,5-difluorophenyl)methyl]pyridin-2-yl]amine], the melting point lay within 204 to 206 °C.
Same read-out and setting: with `O=S(=O)(c1ccc(Cl)cc1)C(c1cc(F)ccc1F)c1cc(CO)ncc1Cl` (centres unmarked) [Example 257, [5-Chloro-4-[(4-chlorophenylsulfonyl)(2,5-difluorophenyl)methyl]pyridin-2-yl]methanol] the figure was 164 to 165 °C; with `O=C(O)c1cc(C(c2cc(F)ccc2F)S(=O)(=O)c2ccc(Cl)cc2)c(Cl)cn1` (centres unmarked) [Example 262, 5-Chloro-4-[(4-chlorophenylsulfonyl)(2,5-difluorophenyl)methyl]picolinic acid], 94 to 96 °C.
With `CN(C)CCS(=O)(=O)Nc1cc(C(c2cc(F)ccc2F)S(=O)(=O)c2ccc(Cl)cc2)c(Cl)cn1` (centres unmarked) [Example 279, N-[5-Chloro-4-[(4-chlorophenylsulfonyl)(2,5-difluorophenyl)methyl]pyridin-2-yl]-2-(dimethylamino)ethanesulfonamide], the pIC50 in data set [1] is more than 8.30.
In turn, `O=S(=O)(CCO)Nc1cc(C(c2cc(F)ccc2F)S(=O)(=O)c2ccc(Cl)cc2)c(Cl)cn1` (centres unmarked) [Example 284, N-[5-Chloro-4-[(4-chlorophenylsulfonyl)(2,5-difluorophenyl)methyl]pyridin-2-yl]-2-hydroxyethanesulfonamide] showed a melting point of 155 to 158 °C.
The compound `O=C(O)CCCc1cc(C(c2cc(F)ccc2F)S(=O)(=O)c2ccc(Cl)cc2)c(Cl)cn1` (centres unmarked) [Example 289, 4-[5-Chloro-4-[(4-chlorophenylsulfonyl)(2,5-difluorophenyl)methyl]pyridin-2-yl]butyric acid] registered a melting point of 147 to 148 °C.
The same measure, in the same setting: the result for `Nc1cc(C(c2c(F)cccc2F)S(=O)(=O)c2ccc(Cl)cc2)c(Cl)cn1` (centres unmarked) [Example 296, 5-Chloro-4-[(4-chlorophenylsulfonyl)(2,6-difluorophenyl)methyl]pyridin-2-ylamine] reads 179 to 181 °C.
